The text below walks through data of patent US9302999B2, “Substituted triazoles as herbicides” (E. I. DU PONT DE NEMOURS AND COMPANY, priority 2012, dated 2016).

What all share (type): in vivo
Test [1] deals with cocklebur (common cocklebur, Xanthium strumarium). The test is described as follows: Test F pre-/postemergence: cocklebur. The settings on record: Preemergence, scale 0 to 100. From the text:
(§1) Seeds of plant species selected from corn (Zea mays), soybean (Glycine max), velvetleaf (Abutilon theophrasti), lambsquarters (Chenopodium album), poinsettia, wild (wild poinsettia, Euphorbia heterophylla), pigweed, palmer (palmer pigweed, Amaranthus palmeri), waterhemp (common waterhemp, Amaranthus rudis), surinam grass (Brachiaria decumbens), crabgrass, Brazil (Brazilian crabgrass, Digitaria horizontalis), panicum, fall (fall panicum Panicum dichotomiflorum), crabgrass, large (large crabgrass, Digitaria sanguinalis), foxtail, giant (giant foxtail, Setaria faberii), foxtail, green (green foxtail Setaria viridis), goosegrass (Eleusine indica), ragweed (common ragweed, Ambrosia elatior), barnyardgrass (Echinochloa crus-galli), sandbur (southern sandbur, Cenchrus echinatus), arrowleaf sida (Sida rhombifolia), ryegrass, Italian (Italian ryegrass, Lolium multiflorum), dayflower, VA (Virginia (VA) dayflower, Commelina virginica), field bindweed (Convolvulus arvensis), cocklebur (common cocklebur, Xanthium strumarium), morningglory (Ipomoea coccinea), nightshade (eastern black nightshade, Solanum ptycanthum), kochia (Kochia scoparia), nutsedge, yellow (yellow nutsedge, Cyperus esculentus), johnsongrass (Sorghum halepense), smartweed (ladysthumb smartweed, Polygonum persicaria), and beggarticks (hairy beggarticks, Bidens pilosa), were planted into a silt loam soil and treated preemergence with test chemicals formulated in a non-phytotoxic solvent mixture which included a surfactant. At the same time, plants selected from these crop and weed species and also pigweed (Amaranthus retroflexus), waterhemp_RES1 (ALS/Triazine resistant common waterhemp, Amaranthus rudis) and waterhemp_RES2 (ALS/HPPD resistant common waterhemp, Amaranthus rudis) were planted in pots containing a planting medium comprising spaghnum peat moss, vermiculite, wetting agent and starter nutrients treated with postemergence applications of some of the test chemicals formulated in the same manner. Plants ranged in height from 2 to 18 cm for postemergence treatments (1- to 4-leaf stage).
(§2) Treated plants and controls were maintained in a greenhouse for 14 to 21 days, after which time all species were compared to controls and visually evaluated. Plant response ratings, summarized in Table E, are based on a scale of 0 to 100 where 0 is no effect and 100 is complete control. A dash (-) response means no test result.

Test [2] concerns crabgrass, large (large crabgrass, Digitaria sanguinalis). Description: Test F pre-/postemergence: crabgrass, large. The settings on record: Preemergence.
Source text: as §1, §2

The test system of test [3] is deadnettle (henbit deadnettle, Lamium amplexicaule). Description: Test C postemergence: deadnettle. The source says: At the same time, plants selected from these crop and weed species and also barley (winter barley, Hordeum vulgare), canarygrass (Phalaris minor), chickweed (common chickweed, Stellaria media) windgrass (Apera spica-venti) and deadnettle (henbit deadnettle, Lamium amplexicaule) were planted in pots containing Redi-Earth® planting medium (Scotts Company, 14111 Scottslawn Road, Marysville, Ohio 43041) comprising spaghnum peat moss, vermiculite, wetting agent and starter nutrients and treated with postemergence applications of test chemicals formulated in the same manner. Plants ranged in height from 2 to 18 cm (1- to 4-leaf stage) for postemergence treatments.
Treated plants and controls were maintained in a greenhouse for 13 to 15 days, after which time all species were compared to controls and visually evaluated. Plant response ratings, summarized in Table C, are based on a scale of 0 to 100 where 0 is no effect and 100 is complete control. A dash (-) response means no test result.

Test [4] relates to windgrass (Apera spica-venti). The test is described as follows: Test D pre-/postemergence: windgrass. From the text:
Seeds of plant species selected from bluegrass (annual bluegrass, Poa annua), blackgrass (Alopecurus myosuroides), canarygrass (Phalaris minor), chickweed (common chickweed, Stellaria media), galium (catchweed bedstraw, Galium aparine), bromegrass, downy (downy bromegrass, Bromus tectorum), field poppy (Papaver rhoeas), field violet (Viola arvensis), foxtail, green (green foxtail, Setaria viridis), deadnettle (henbit deadnettle, Lamium amplexicaule), ryegrass, Italian (Italian ryegrass, Lolium multiflorum), kochia (Kochia scoparia), lambsquarters (Chenopodium album), oilseed rape (Brassica napus), pigweed (Amaranthus retroflexus), Russian thistle (Salsola iberica), chamomile (scentless chamomile, Matricaria inodora), speedwell (bird's-eye speedwell, Veronica persica), barley, spring (spring barley, Hordeum vulgare), wheat, spring (spring wheat, Triticum aestivum), buckwheat, wild (wild buckwheat, Polygonum convolvulus), mustard, wild (wild mustard, Sinapis arvensis), oat, wild (wild oat, Avena fatua), radish, wild (wild radish, Raphanus raphanistrum), windgrass (Apera spica-venti), barley, winter (winter barley, Hordeum vulgare), and wheat, winter (winter wheat, Triticum aestivum) were planted into a silt loam soil and treated preemergence with test chemicals formulated in a non-phytotoxic solvent mixture which included a surfactant. At the same time, these same crop and weed species were planted in pots containing the planting medium comprising spaghnum peat moss, vermiculite, wetting agent and starter nutrients and treated with postemergence applications of the test chemicals formulated in the same manner. Plants ranged in height from 2 to 18 cm (1- to 4-leaf stage).
Treated plants and controls were maintained in a controlled growth environment for 14 to 21 days after which time all species were compared to controls and visually evaluated. Plant response ratings, summarized in Table D, are based on a scale of 0 to 100 where 0 is no effect and 100 is complete control. A dash (-) response means no test result.

In test [5] the test system is rice (Oryza sativa). The test is described as follows: Test C flooded paddy test: rice. The settings on record: scale 0 to 100 (0 no effect, 100 complete control). A digest of the protocol: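 Plants at 2-leaf stage in pots flooded 3 cm above soil; compounds applied directly into the paddy water, depth maintained. Visual rating against controls after 13–15 days in greenhouse, scale 0 (no effect) to 100 (complete control).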

Test [6] deals with blackgrass (Alopecurus myosuroides). Description: Test D pre-/postemergence: blackgrass. A digest of the protocol:
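Visual control ratings (0–100) after 14–21 days, controlled environment. Preemergence on silt loam; postemergence on 2–18 cm plants.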

Where [7] appears, read: 16 g ai/ha, scale 0 to 100, 0 no effect, 100 complete control.
The mark [8] stands for this setting: 31 g ai/ha, scale 0 to 100, 0 no effect, 100 complete control.
The mark [9] stands for this setting: 31 g ai/ha, scale 0 to 100 (0 no effect, 100 complete control).
[10] abbreviates: 62 g ai/ha, scale 0 to 100 (0 no effect, 100 complete control).
The mark [11] stands for this setting: 125 g ai/ha, scale 0 to 100, 0 no effect, 100 complete control.
[12] abbreviates: Postemergence, 31 g ai/ha, scale 0 to 100 (0 no effect, 100 complete control).
The mark [13] stands for this setting: Postemergence, 62 g ai/ha, scale 0 to 100 (0 no effect, 100 complete control).
[14] abbreviates: Postemergence, 125 g ai/ha, scale 0 to 100, 0 no effect, 100 complete control.
[15] abbreviates: Postemergence, 250 g ai/ha, scale 0 to 100 (0 no effect, 100 complete control).
[16] abbreviates: Preemergence, 31 g ai/ha, scale 0 to 100, 0 no effect, 100 complete control.
The mark [17] stands for this setting: Preemergence, 62 g ai/ha, scale 0 to 100.
The mark [18] stands for this setting: Preemergence, 125 g ai/ha, scale 0 to 100.
Where [19] appears, read: Preemergence, 250 g ai/ha, scale 0 to 100.
The mark [20] stands for this setting: Postemergence, 16 g ai/ha, scale 0 to 100.
[21] abbreviates: Preemergence, 16 g ai/ha, scale 0 to 100, 0 no effect, 100 complete control.
Setting [22] is: Flood (flooded paddy test), 125 g ai/ha, visual rating after 13 to 15 days.
Setting [23] is: Flood (flooded paddy test), 250 g ai/ha, visual rating after 13 to 15 days.

With `COc1nn(-c2cccc(F)c2)nc1Cc1ccnc(C(F)(F)F)c1` [Compound 139], the “Plant response rating, Cocklebur” value in test [1] (62 g ai/ha) and in test [1] (125 g ai/ha) was 0 throughout. Further, the “Plant response rating, Crabgrass, Large” value amounted to 30 in test [2] (setting [7]); 95 in test [2] (setting [8]); 95 in test [2] (62 g ai/ha, scale 0 to 100); 100 in test [2] (125 g ai/ha, scale 0 to 100); 100 in test [2] (250 g ai/ha, scale 0 to 100). Besides, the “Plant response rating, Deadnettle” value in test [3] (setting [9]) was 95; in test [3] (setting [10]), 95; in test [3] (setting [11]), 98; in test [3] (250 g ai/ha, scale 0 to 100), 100.

Consider `FC(F)(F)COc1nn(-c2ccc(C(F)(F)F)cc2)nc1Cc1ccnc(C(F)(F)F)c1` [Compound 14, 4-[[5-(2,2,2-trifluoroethoxy)-2-[4-(trifluoromethyl)phenyl]-2H-1,2,3-triazol-4-yl]methyl]-2-(trifluoromethyl)pyridine], for which the “Plant response rating: Windgrass” value in test [4] (setting [12]) is reported as 30; in test [4] (setting [13]) it was 40; in test [4] (setting [14]) it was 75; in test [4] (setting [15]) it was 100. For the same molecule, the “Plant response rating, Windgrass” value turned out to be 10 in test [4] (setting [16]), 20 in test [4] (setting [17]), 40 in test [4] (setting [18]) and 85 in test [4] (setting [19]). The plant injury at 62 g/ha in test [5] (Oryza sativa, Flood (flooded paddy test), 62 g ai/ha, visual rating after 13 to 15 days, read-out: Plant response rating, Rice) stood at 40%. Also, the plant injury at 250 g/ha in test [5] (Oryza sativa, Flood (flooded paddy test), 250 g ai/ha, visual rating after 13 to 15 days, read-out: Plant response rating, Rice) worked out at 45%. Further, the “Plant response rating: Blackgrass” value in test [6] (setting [12]) amounted to 25; in test [6] (setting [13]), 35; in test [6] (setting [14]), 70; in test [6] (setting [15]) it was 85. For the same molecule, the “Plant response rating, Blackgrass” value came to 0 in test [6] (setting [16]), 0 in test [6] (setting [17]), 10 in test [6] (setting [18]) and 60 in test [6] (setting [19]). Moreover, the “Plant response rating, Deadnettle” value worked out at 98 in test [3] (setting [9]); 98 in test [3] (setting [10]); 100 in test [3] (setting [11]); 100 in test [3] (250 g ai/ha, scale 0 to 100).

In the case of `Cc1nn(-c2ccc(F)cc2F)nc1Oc1ccnc(C(F)(F)F)c1` [Compound 146], the “Plant response rating, Crabgrass, Large” value in test [2] (setting [7]) was found to be 0; in test [2] (setting [8]) it was 75; in test [2] (62 g ai/ha, scale 0 to 100) it was 98; in test [2] (125 g ai/ha, scale 0 to 100), 98; in test [2] (250 g ai/ha, scale 0 to 100), 100.

On to `Cc1nn(-c2ccc(C(F)(F)F)cc2)nc1Oc1ccnc(C(F)(F)F)c1` [Compound 120], for which the “Plant response rating: Windgrass” value was 15 in test [4] (setting [12]), 95 in test [4] (setting [13]), 100 in test [4] (setting [14]) and 100 in test [4] (setting [15]). Further, the “Plant response rating, Windgrass” value in test [4] (setting [20]) is listed as 5; in test [4] (setting [21]), 0; in test [4] (setting [16]), 80; in test [4] (setting [17]), 100; in test [4] (setting [18]), 100; in test [4] (setting [19]), 100. In addition, the “Plant response rating, Rice” value in test [5] (setting [22]) is given as 70; in test [5] (setting [23]), 80; in test [5] (Flood, 62 g ai/ha), 60. Moreover, the “Plant response rating: Blackgrass” value in test [6] (setting [12]) was determined as 10; in test [6] (setting [13]), 30; in test [6] (setting [14]), 75; in test [6] (setting [15]), 85. The “Plant response rating, Blackgrass” value in test [6] (setting [20]) was determined as 5; in test [6] (setting [21]), 0; in test [6] (setting [16]) it was 80; in test [6] (setting [17]), 98; in test [6] (setting [18]), 100; in test [6] (setting [19]), 100. The “Plant response rating, Deadnettle” value in test [3] (setting [9]) is given as 100; in test [3] (setting [10]) it was 100; in test [3] (setting [11]), 100; in test [3] (250 g ai/ha, scale 0 to 100) it was 100.

As for `Cc1nn(-c2ccc(C(F)(F)F)cn2)nc1Oc1ccnc(C(F)(F)F)c1` [Compound 23], the “Plant response rating: Windgrass” value is 5 in test [4] (setting [12]), 10 in test [4] (setting [13]), 20 in test [4] (setting [14]) and 30 in test [4] (setting [15]). Also, the “Plant response rating, Windgrass” value in test [4] (setting [20]) was determined as 0. For the same molecule, the “Plant response rating, Rice” value came out at 0 in test [5] (Flood (flooded paddy test), 62 g ai/ha, visual rating after 13 to 15 days); 0 in test [5] (setting [22]); 30 in test [5] (setting [23]); 0 in test [5] (Flood, 31 g ai/ha). The “Plant response rating: Blackgrass” value came out at 10 in test [6] (setting [12]), 10 in test [6] (setting [13]), 20 in test [6] (setting [14]) and 30 in test [6] (setting [15]). Further, in test [6] (setting [20]), the “Plant response rating, Blackgrass” value was determined as 5. Moreover, the “Plant response rating, Deadnettle” value in test [3] (setting [9]) is given as 80; in test [3] (setting [10]) it was 80; in test [3] (setting [11]), 85; in test [3] (250 g ai/ha, scale 0 to 100), 98.
